Data on 17 compounds can be found in ChEMBL document CHEMBL1821651, “Structure-activity relationships of phosphoinositide 3-kinase (PI3K)/mammalian target of rapamycin (mTOR) dual inhibitors: investigations of various 6,5-heterocycles to improve metabolic stability” (J Med Chem, 2011).

In brackets after ≈: the same amount, converted by molar mass.

A short description of series [1]: in vitro. The following applies: Sprague-Dawley, rat, liver microsomes. A general note: Microsomes from liver hold many membrane-bound enzymes, among them those of drug oxidation.
Description: Clearance in Sprague-Dawley rat liver microsomes
Series [2] is described as follows: in vitro. The following applies: human, liver microsomes.
Description: Clearance in human liver microsomes
Series [3] is filed under the species Rattus norvegicus. Kind of series: Liver blood flow in Sprague-Dawley rat. Type of series: ADME, organism-based.
The nature of series [4]: Clearance in cynomolgus monkey liver microsomes. Type of series: ADME, Macaca fascicularis, Microsome.
Series [5] can be described thus: Clearance in Beagle dog liver microsomes. Type of series: ADME, Canis lupus familiaris, Microsome.
Series [6] is described as follows: Clearance in mouse liver microsomes. It is filed as ADME, Microsome.
Series [7] is filed under the species Mus musculus. Description: Liver blood flow in mouse. Type of series: ADME, organism-based.
For another series, the species on record is Canis familiaris. Description: Liver blood flow in Beagle dog. It is filed as ADME, organism-based, Canis lupus familiaris.
The target in series [8] is Serine/threonine-protein kinase mTOR (Homo sapiens, UniProt P42345). Kind of series: Inhibition of recombinant N-terminal GST-tagged mTOR-mediated 4E-BP1 phosphorylation after 60 mins by TR-FRET assay. A general note: In TR-FRET formats the signal depends on donor and acceptor labels being close together.
Series [9] is described as follows: Clearance in iv dosed Sprague-Dawley rat. Type of series: ADME, organism-based. The following applies: in vivo.
The next series concerns Plasma. Kind of series: Plasma EC50 for pAkt inhibition in nu/nu CD1 mouse xenografted with U87 MG tumor.
The target in series [10] is T1, Phosphatidylinositol 4,5-bisphosphate 3-kinase catalytic subunit delta isoform (Homo sapiens, UniProt O00329).
T1 sequence (O00329 whole entry): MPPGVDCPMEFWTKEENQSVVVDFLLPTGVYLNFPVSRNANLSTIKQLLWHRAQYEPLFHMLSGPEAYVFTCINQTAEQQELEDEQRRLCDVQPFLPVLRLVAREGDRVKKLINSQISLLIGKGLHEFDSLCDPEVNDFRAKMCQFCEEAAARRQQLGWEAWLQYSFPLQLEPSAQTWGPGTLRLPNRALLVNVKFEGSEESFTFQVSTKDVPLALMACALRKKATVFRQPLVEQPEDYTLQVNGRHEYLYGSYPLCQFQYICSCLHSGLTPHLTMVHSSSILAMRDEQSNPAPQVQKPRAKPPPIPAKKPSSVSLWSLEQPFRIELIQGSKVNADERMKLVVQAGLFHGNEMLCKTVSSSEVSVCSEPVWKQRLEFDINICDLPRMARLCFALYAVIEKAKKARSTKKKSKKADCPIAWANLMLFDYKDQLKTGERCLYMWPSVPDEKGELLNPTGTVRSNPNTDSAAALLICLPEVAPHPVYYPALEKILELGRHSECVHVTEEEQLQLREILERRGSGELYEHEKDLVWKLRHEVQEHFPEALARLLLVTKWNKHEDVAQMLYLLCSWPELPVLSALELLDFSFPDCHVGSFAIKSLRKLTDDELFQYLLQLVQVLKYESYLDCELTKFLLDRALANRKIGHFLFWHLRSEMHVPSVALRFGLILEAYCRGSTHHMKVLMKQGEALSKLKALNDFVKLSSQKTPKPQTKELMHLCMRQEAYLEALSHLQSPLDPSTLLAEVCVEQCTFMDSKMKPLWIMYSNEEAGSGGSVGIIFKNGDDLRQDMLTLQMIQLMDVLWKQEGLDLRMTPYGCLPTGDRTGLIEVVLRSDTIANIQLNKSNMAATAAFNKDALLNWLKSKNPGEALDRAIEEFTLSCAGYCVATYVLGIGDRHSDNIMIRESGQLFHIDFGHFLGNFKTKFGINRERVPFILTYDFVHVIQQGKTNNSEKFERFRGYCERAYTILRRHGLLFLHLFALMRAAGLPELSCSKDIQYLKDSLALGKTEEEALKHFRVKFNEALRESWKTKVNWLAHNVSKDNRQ
Kind of series: Inhibition of human N-terminal His-tagged PI3Kdelta expressed in insect Sf9 cells using PI(4,5)P2 as substrate after 20 mins by alphascreen assay in presence of 8 uM ATP.

For series [11], the target named is Phosphatidylinositol 4,5-bisphosphate 3-kinase catalytic subunit gamma isoform (Homo sapiens, UniProt P48736). Description: Inhibition of human N-terminal His-tagged PI3Kgamma expressed in insect Sf9 cells using PI(4,5)P2 as substrate after 20 mins by alphascreen assay in presence of 8 uM ATP. (Alpha assays give light when donor and acceptor beads are brought close together.)
Phosphatidylinositol 4,5-bisphosphate 3-kinase catalytic subunit gamma isoform, sequence (P48736 whole entry, canonical isoform): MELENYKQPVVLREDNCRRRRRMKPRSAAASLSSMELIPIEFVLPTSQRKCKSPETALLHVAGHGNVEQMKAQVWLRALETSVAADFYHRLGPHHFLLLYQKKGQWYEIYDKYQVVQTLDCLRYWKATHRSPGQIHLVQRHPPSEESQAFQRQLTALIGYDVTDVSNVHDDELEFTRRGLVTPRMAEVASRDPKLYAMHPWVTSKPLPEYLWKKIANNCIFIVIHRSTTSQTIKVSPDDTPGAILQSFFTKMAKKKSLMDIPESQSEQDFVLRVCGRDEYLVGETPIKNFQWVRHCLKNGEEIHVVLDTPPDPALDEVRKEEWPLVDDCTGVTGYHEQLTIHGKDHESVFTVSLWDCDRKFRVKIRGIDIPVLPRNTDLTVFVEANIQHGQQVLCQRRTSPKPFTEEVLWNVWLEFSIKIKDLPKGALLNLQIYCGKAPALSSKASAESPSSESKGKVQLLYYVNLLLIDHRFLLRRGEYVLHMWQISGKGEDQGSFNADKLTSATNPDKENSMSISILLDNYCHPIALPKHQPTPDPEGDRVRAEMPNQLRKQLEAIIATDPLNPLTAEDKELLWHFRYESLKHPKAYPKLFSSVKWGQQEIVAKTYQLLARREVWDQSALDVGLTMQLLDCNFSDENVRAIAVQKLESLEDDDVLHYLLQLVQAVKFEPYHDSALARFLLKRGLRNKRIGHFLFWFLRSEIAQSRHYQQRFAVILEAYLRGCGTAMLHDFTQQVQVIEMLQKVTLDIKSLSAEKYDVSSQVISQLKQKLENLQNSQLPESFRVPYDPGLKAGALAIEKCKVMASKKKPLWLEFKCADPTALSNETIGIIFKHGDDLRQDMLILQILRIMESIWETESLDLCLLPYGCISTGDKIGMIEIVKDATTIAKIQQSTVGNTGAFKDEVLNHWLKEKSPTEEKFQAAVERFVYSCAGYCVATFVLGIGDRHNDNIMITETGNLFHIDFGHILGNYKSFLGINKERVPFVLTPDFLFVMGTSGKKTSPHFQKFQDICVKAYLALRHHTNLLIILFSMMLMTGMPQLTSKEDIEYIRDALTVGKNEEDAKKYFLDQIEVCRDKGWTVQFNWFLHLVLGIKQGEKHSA

Series [12] in a line: Ratio of drug level in tumor to plasma in nu/nu CD1 mouse xenografted with U87MG tumor at 3 mg/kg, po administered as single dose measured upto 16 hrs. Type of series: ADME, organism-based. Details: dose 3 mg/kg, route oral. The following applies: tumor and plasma.
The test system of series [13] is Rattus norvegicus. Kind of series: Liver blood flow in iv dosed Sprague-Dawley rat. Type of series: ADME, organism-based. The following applies: in vivo.
Series [14] is described as follows: Ratio of drug level in tumor to plasma in nu/nu CD1 mouse xenografted with U87MG tumor at 1 mg/kg, po administered as single dose measured upto 8 hrs. Type of series: ADME, organism-based. Details: dose 1 mg/kg, route oral. The following applies: tumor and plasma.
Series [15] has as its target Phosphatidylinositol 4,5-bisphosphate 3-kinase catalytic subunit beta isoform (Homo sapiens, UniProt P42338). Description: Inhibition of human N-terminal His-tagged PI3Kbeta expressed in insect Sf9 cells using PI(4,5)P2 as substrate after 20 mins by alphascreen assay in presence of 20 uM ATP.
A short description of series [16]: Antitumor activity against human U87MG tumor xenografted in po dosed nu/nu CD1 mouse assessed as tumor growth delay. The following applies: U-87 MG. It is filed as functional, U-87MG ATCC.
The target in series [17] is Phosphatidylinositol 4,5-bisphosphate 3-kinase catalytic subunit alpha isoform (Homo sapiens, UniProt P42336). Kind of series: Inhibition of human PI3Kalpha using PI(4,5)P2 as substrate after 20 mins by alphascreen assay in presence of 20 uM ATP.
Phosphatidylinositol 4,5-bisphosphate 3-kinase catalytic subunit alpha isoform, sequence (P42336 whole entry, canonical isoform): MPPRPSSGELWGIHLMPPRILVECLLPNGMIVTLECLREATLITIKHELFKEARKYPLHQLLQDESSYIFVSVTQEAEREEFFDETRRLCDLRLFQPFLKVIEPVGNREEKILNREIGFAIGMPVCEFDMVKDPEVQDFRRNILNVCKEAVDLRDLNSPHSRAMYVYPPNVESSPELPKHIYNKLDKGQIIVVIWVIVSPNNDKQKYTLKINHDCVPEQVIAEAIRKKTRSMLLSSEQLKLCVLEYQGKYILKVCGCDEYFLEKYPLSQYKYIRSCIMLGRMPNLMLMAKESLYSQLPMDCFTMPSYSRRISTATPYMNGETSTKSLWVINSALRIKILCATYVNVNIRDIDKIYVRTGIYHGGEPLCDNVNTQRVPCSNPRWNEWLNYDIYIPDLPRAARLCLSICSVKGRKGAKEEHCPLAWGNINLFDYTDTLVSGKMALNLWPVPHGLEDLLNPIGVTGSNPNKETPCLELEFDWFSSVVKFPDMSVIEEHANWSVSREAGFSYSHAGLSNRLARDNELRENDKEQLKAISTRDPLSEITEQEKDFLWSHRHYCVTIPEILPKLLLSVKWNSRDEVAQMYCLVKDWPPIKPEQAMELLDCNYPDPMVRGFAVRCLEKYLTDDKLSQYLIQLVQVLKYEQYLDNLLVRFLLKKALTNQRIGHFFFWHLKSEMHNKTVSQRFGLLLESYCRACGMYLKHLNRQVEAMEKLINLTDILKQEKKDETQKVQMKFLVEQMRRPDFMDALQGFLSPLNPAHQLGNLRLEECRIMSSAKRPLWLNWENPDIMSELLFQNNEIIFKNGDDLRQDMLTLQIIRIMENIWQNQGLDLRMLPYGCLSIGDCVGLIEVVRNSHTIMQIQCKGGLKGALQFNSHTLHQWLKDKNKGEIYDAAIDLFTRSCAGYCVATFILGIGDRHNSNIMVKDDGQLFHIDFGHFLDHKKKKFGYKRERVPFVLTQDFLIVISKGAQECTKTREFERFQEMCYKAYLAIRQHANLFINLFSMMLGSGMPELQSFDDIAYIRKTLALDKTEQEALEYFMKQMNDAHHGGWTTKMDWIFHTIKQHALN
The nature of series [18]: Oral bioavailability in Sprague-Dawley rat at 2 mg/kg. It is filed as ADME, organism-based. The following applies: in vivo.
The nature of series [19]: Volume of distribution in iv dosed Sprague-Dawley rat. Type of series: ADME, organism-based. The following applies: in vivo.
Series [20] has as its system Mus musculus. Description: Toxicity in nu/nu CD1 mouse xenografted with human U87MG cells assessed as weight loss at 3 mg/kg, po relative to control. Type of series: organism-based, U-87MG ATCC. Details: dose 3 mg/kg, route oral. The following applies: in vivo.
Series [21] is described as follows: Antitumor activity against human U87MG tumor xenografted in nu/nu CD1 mouse assessed as inhibition of tumor growth at 1 mg/kg, po qd. It is filed as functional, U-87MG ATCC. The following applies: U-87 MG, read-out: GI.
Series [22] relates to Mus musculus. Description: In vivo inhibition of PI3Kalpha-mediated Akt phosphorylation in nu/nu CD1 mouse xenografted with U87MG tumor. Type of series: functional, organism-based. The following applies: CD1, U-87 MG.
The nature of series [23]: AUC in Sprague-Dawley rat at 2 mg/kg, po. Type of series: ADME, organism-based. Details: dose 2 mg/kg, route oral. The following applies: plasma.
Series [24] in a line: AUC (0 to 24 hrs) in plasma of nu/nu CD1 mouse xenografted with human U87MG cells at ED50. Further details: time < 24 hr. Type of series: ADME, organism-based, U-87MG ATCC.
Series [25] can be described thus: Elimination half life in iv dosed Sprague-Dawley rat. It is filed as ADME, organism-based. The following applies: in vivo, read-out: beta t1/2 (converted).

Phosphatidylinositol 4,5-bisphosphate 3-kinase catalytic subunit beta isoform, sequence (P42338 whole entry, canonical isoform): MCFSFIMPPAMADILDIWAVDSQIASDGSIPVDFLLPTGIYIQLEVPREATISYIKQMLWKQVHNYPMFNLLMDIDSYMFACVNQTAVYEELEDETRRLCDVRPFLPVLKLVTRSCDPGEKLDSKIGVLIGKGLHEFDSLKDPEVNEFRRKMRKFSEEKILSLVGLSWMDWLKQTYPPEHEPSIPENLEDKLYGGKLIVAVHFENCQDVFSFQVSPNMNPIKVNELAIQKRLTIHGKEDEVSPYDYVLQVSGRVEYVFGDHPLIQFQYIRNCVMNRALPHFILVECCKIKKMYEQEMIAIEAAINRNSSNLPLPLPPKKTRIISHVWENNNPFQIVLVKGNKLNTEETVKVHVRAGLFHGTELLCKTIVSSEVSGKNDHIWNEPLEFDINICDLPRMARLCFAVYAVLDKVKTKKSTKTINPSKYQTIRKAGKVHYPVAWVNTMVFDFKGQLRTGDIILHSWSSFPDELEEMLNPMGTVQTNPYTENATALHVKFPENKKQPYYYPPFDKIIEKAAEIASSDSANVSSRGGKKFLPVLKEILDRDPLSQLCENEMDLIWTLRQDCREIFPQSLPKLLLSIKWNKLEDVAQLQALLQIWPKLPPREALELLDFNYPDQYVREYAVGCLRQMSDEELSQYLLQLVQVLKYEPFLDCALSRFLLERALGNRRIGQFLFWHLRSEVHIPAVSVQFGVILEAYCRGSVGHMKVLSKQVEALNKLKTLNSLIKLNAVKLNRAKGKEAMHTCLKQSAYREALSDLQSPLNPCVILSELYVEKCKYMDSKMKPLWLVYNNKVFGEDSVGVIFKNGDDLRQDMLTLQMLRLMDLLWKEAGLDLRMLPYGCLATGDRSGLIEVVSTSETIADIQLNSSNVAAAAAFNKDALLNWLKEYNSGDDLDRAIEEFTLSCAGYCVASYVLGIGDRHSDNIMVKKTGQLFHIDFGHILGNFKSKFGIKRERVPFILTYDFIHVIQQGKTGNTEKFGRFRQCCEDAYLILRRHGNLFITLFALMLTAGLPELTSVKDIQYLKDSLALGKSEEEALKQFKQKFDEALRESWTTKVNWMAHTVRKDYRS

In general, microsomal CLint refers to a measure of how fast metabolising enzymes remove a compound, apart from limits set by blood flow. As to `CC(=O)Nc1nc2ccc(-c3cnc(Cl)c(NS(=O)(=O)c4ccc(F)cc4)c3)cc2s1`, the microsomal CLint (in the series “in vitro [1]”; in “in vitro [2]”; in series [4]; in series [5]; in series [6]) was less than 26 µL/min/mg each time. Also, the QH in the series listed under Rattus norvegicus [3], in the series filed under Mus musculus [7] and in the series filed under Canis familiaris was 0.2% throughout.
As a reminder, the IC50 is the midpoint of a concentration-inhibition curve. For `Nc1nc2ccc(-c3cnc(Cl)c(NS(=O)(=O)c4ccc(F)cc4)c3)cc2s1`, the IC50 in series [8] came out at 24 nM.
The same measure, in the same setting: with `O=S(=O)(Nc1cc(-c2ccc3ncsc3c2)cnc1Cl)c1ccc(F)cc1` the figure was 33 nM.
Broadly, the clearance is a measure of how efficiently the substance is removed, as volume per time. One may read the EC50 as the midpoint of the concentration-response curve. What is called Ki is a measure of affinity in units of concentration, obtained from inhibition or displacement. As a reminder, the Kp is tissue or fluid exposure divided by exposure in the circulation. The ED50 is the dose that gives a 50% effect, or the effect in half of the subjects. Usually bioavailability stands for the share of a dose that reaches the circulation, judged against a reference dose that is usually intravenous. Broadly, the Vd is the apparent volume that relates the amount in the body to the concentration in plasma or blood. Broadly, the AUC is the area under the concentration-time curve, a measure of exposure. As usually defined, the AUC(0-t) is exposure summed from dosing to a finite time, without extrapolation to infinity. Take `CC(=O)Nc1cn2nc(-c3cnc(Cl)c(NS(=O)(=O)c4ccc(F)cc4)c3)ccc2n1`: the clearance in series [9] is 0.667 mL/min/kg. Moreover, the EC50 with Plasma came to 500 nM; with Mus musculus [22], 0.232 µg/mL (≈ 0.503 µM). Also, the Ki came to 0.8 nM in series [10], 1.9 nM in series [11], 3.5 nM in series [15] and 1.4 nM in series [17]. Further, the Kp at 16 h in series [12] was found to be 0.27. Further, the QH in the series on Rattus norvegicus [13] is listed as 1.2%. Further, the Kp at 8 h in [14] is 0.13. Moreover, the median effective dose (ED50) in [16] was 0.7 mg/kg. In addition, the IC50 in series [8] amounted to 0.4 nM. In addition, the bioavailability in [18] came out at 46%. Further, the Vd in series [19] was 0.27 L/kg. For the same compound, in the series with Mus musculus [20], the Activity is recorded as less than 5%. Moreover, the inhibition in vivo at 1 mg/kg in [21] worked out at 49%. The compound further came in with an AUC in series [23] of 11500 ng·h/mL. The same compound gave an AUC(0-t) at 24 h in series [24] of 9200 ng·h/mL. Besides, the half-life in series [25] is 7 h.
For `Nc1cn2nc(-c3cnc(Cl)c(NS(=O)(=O)c4ccc(F)cc4)c3)ccc2n1`, the inhibition constant (Ki) in series [17] came to 11 nM. Further, in [8], the IC50 came out at 35 nM.
For `O=S(=O)(Nc1cc(-c2ccc3nccn3n2)cnc1Cl)c1ccc(F)cc1`, in series [17], the Ki worked out at 6.1 nM. The IC50 in series [8] is 49 nM.
As to `CC(=O)Nc1cn2cc(-c3cnc(Cl)c(NS(=O)(=O)c4ccc(F)cc4)c3)ccc2n1`, in series [17], the Ki amounted to 1.2 nM. In addition, the IC50 in [8] is 6.6 nM.
For the compound `Nc1cn2cc(-c3cnc(Cl)c(NS(=O)(=O)c4ccc(F)cc4)c3)ccc2n1`, the Ki in [17] amounted to 2.8 nM. Besides, in series [8], the IC50 was determined as 20 nM.
Turning to `O=S(=O)(Nc1cc(-c2ccc3nccn3c2)cnc1Cl)c1ccc(F)cc1`, the Ki in [17] stood at 23 nM. In [8], the IC50 was 229 nM.
For the compound `CC(=O)Nc1nc2ccc(-c3cnc(Cl)c(NS(=O)(=O)c4ccc(F)cc4)c3)cc2[nH]1`, the Ki in series [17] was determined as 3.3 nM. In series [8], the 50% inhibitory concentration (IC50) came to 20 nM.
The like results for `Nc1nc2ccc(-c3cnc(Cl)c(NS(=O)(=O)c4ccc(F)cc4)c3)cc2[nH]1` were, in that order, 119 nM and 430 nM.
As for `O=S(=O)(Nc1cc(-c2ccc3nc[nH]c3c2)cnc1Cl)c1ccc(F)cc1`, in series [17], the Ki was found to be 68 nM. The IC50 in [8] turned out to be 446 nM.
On the same counts, the results for `CC(=O)Nc1nc2ccc(-c3cnc(Cl)c(NS(=O)(=O)c4ccc(F)cc4)c3)cc2o1` are 47 nM and 146 nM.
For the compound `Nc1nc2ccc(-c3cnc(Cl)c(NS(=O)(=O)c4ccc(F)cc4)c3)cc2o1`, in [17], the Ki came out at 7.2 nM. Besides, in series [8], the IC50 came to 70 nM.
As for `O=S(=O)(Nc1cc(-c2ccc3ncoc3c2)cnc1Cl)c1ccc(F)cc1`, the Ki in series [17] turned out to be 26 nM. Further, the IC50 in [8] was 76 nM.
As to `O=S(=O)(Nc1cc(-c2ccc3nncn3c2)cnc1Cl)c1ccc(F)cc1`, the Ki in series [17] stood at 51 nM. Besides, in [8], the IC50 was greater than 25000 nM.
On to `O=S(=O)(Nc1cc(-c2ccc3sncc3c2)cnc1Cl)c1ccc(F)cc1`, for which, in series [17], the Ki turned out to be 76 nM. The IC50 in series [8] worked out at 292 nM.
